Source: patent US20260226054A1, “CRYSTAL FORM AND AMORPHOUS SUBSTANCE OF INDOLINE SPIRO COMPOUND, AND PREPARATION METHOD THEREFOR AND USE THEREOF” (CHANGCHUN GENESCIENCE PHARMACEUTICAL CO., LTD., priority 2022, published 2026)
≈ marks a conversion by molar mass, not a printed value. Values belong to the molecule of their own block, whether it stands above or below them.

Tests used:
Type in all cases: physicochemical
[1] = Long-term stability test, packaged crystal form (Table 7); details: 30±2° C./65±5% RH
Description: (§1) Packaging requirements: it is needed to simulate commercially available packaging for the stability sample, the two inner layers are inner flat-bottom bags made of pharmaceutical polyethylene, the first layer of inner bag is tied and sealed, the second layer of inner bag is subjected to heat sealing, an aluminum foil bag at an outer layer is subjected to heat sealing, a package of desiccant is placed between the aluminum foil bag and the second layer of inner bag, and the package is placed in a fiber can.
The sample was taken in the 0th, 3rd and 6th months. The test items, test methods and technical requirements are detailed in Table 7, and the test results are compared with those in the 0th month.

[2] = Stability Test 1 (80° C., lighting, 25° C./60% RH, 40° C./75% RH; HPLC)
Method: • Chromatographic conditions: • Chromatographic column: C18 column; • Running time: 60 min; • UV detector: 210 nm; • Flow rate: 1.0 mL/min; • Injection volume: 5 μL.
A certain amount of crystals and amorphous raw materials were weighed and placed in liquid phase vials, and a total of 5 parts were prepared. The 5 parts were respectively placed under 80° C. (opened), 25° C./60% RH (opened), and 40° C./75% RH (opened) and in a stable lighting chamber (closed, 5000±500 Lx), and the stability under lighting for 10 days, 80° C. 1 day, and the chemical stability under 25° C. and 60% RH and under 40° C. and 75% RH for 1 week were determined by liquid phase, and the XRPD of the solid was determined.

[3] = Dynamic vapor sorption (DVS) hygroscopicity; details: for Hygroscopicity (DVS): 80% humidity, 25° C.; for Solid form by XRPD before and after DVS test: XRPD before vs after DVS
Method: The sample was analyzed through Intrinsic DVS ([…]). The amount of test sample was about 20-30 mg. The temperature of a test room was controlled between 25±1° C., the relative humidity increased from 0% to 90% and then decreased to 0% at a rate of 10%/h, and mass data was recorded every 20 s.
The DVS curve was acquired from DVS Intrinsic through an SMS (Surface Measurement Systems). The relative humidity at 25° C. was calibrated according to deliquescent points of LiCl, Mg(NO3)2 and KCl.

[4] = Solubility test of crystal form (room temperature); details: thermodynamic from solid
Method: About 5 mg of the crystal form sample was weighed and placed in an 8 mL glass bottle, and solvent was gradually added at room temperature. 10 μL of solvent was added each time until all solids were dissolved, and if 5 mL of solvent was added and the solids were not dissolved, the solvent addition was stopped.

[5] = Accelerated stability test of crystal form (Example 3, 40±2° C./75±5% RH)
Method: The sample was taken at 0th, 1st and 3rd month for analysis, the stability of the samples was determined by liquid phase, and the crystal form was determined by XRPD.

[6] = Accelerated stability test, packaged crystal form (Table 6); details: 40 ± 2° C./75 ± 5% RH
Description: as §1
The sample was taken in the 0th, 1st, 2nd, 3rd and 6th months. The test items, test methods and technical requirements are detailed in Table 6, and the test results are compared with those in the 0th month.

[7] = Solubility test of amorphous substance (room temperature); details: read-out: Roughly measured solubility
Method: About 10 mg of amorphous substance was weighted and placed into an 8 mL glass bottle, and a solvent was gradually added at room temperature. 5 μL of solvent was added each time until all the solids were dissolved, and if 8 mL of solvent was added and the solids were not dissolved, the solvent addition was stopped. Table 1. Test results of solubility of amorphous substance of compound represented by Formula (1) (room temperature)

[8] = 25° C., 60% RH (opened), 1 week
[9] = 40° C., 75% RH (opened), 1 week
[10] = Lighting (closed, 5000±500 Lx), 10 Days

- Characters ([1]; 0th month): White powder
- Conclusion ([1]; 0th month): Qualified
- Content (anhydrous and insoluble residue)/HPLC ([1]; 0th month): 99.4%
- Isomer/HPLC: Chiral purity ([1]; 0th month): 100.0%
- Isomer/HPLC: Isomer 1 ([1]; 0th month): 0.05%
- Moisture ([1]; 0th month): 0.2%
- Related substance/HPLC: Impurity 3 ([1]; 0th month): <0.05%
- Related substance/HPLC: Other impurities ([1]; 0th month): 0.05%
- Related substance/HPLC: Total impurities ([1]; 0th month): 0.05%
- Characters ([1]; 3rd month): White powder
- Conclusion ([1]; 3rd month): Qualified
- Content (anhydrous and insoluble residue)/HPLC ([1]; 3rd month): 99.9%
- Isomer/HPLC: Chiral purity ([1]; 3rd month): 99.9%
- Isomer/HPLC: Isomer 1 ([1]; 3rd month): 0.06%
- Moisture ([1]; 3rd month): 0.1%
- Related substance/HPLC: Impurity 3 ([1]; 3rd month): <0.05%
- Related substance/HPLC: Other impurities ([1]; 3rd month): 0.05%
- Related substance/HPLC: Total impurities ([1]; 3rd month): 0.05%
- Stability under the long-term condition ([1]; 6 months vs 0th month): stable
- Characters ([1]; 6th month): White powder
- Conclusion ([1]; 6th month): Qualified
- Content (anhydrous and insoluble residue)/HPLC ([1]; 6th month): 99.6%
- Isomer/HPLC: Chiral purity ([1]; 6th month): 100.0%
- Isomer/HPLC: Isomer 1 ([1]; 6th month): 0.03%
- Moisture ([1]; 6th month): 0.1%
- Related substance/HPLC: Impurity 3 ([1]; 6th month): <0.05%
- Related substance/HPLC: Other impurities ([1]; 6th month): <0.05%
- Related substance/HPLC: Total impurities ([1]; 6th month): <0.05%
- New impurity peak ([1]; 6th month vs 0th month): ≤ 0.10%
- Degradation (%) [2, 8]: 0.02%
- Purity (%) [2, 8]: 99.69%
- Degradation (%) [2, 9]: 0.1%
- Purity (%) [2, 9]: 99.61%
- Degradation (%) ([2]; 80° C. (opened), 1 Day): 0.12%
- Purity (%) ([2]; 80° C. (opened), 1 Day): 99.59%
- Purity (%) ([2]; Initial): 99.71%
- Degradation (%) [2, 10]: 0.35%
- Purity (%) [2, 10]: 99.36%
- Moisture adsorption (DVS) ([3]; 25° C./80% RH): 0.10%
- Hygroscopicity (DVS) [3]: almost had no hygroscopicity
- Solid form by XRPD before and after DVS test [3]: the crystal form did not vary
- solubility ([4]; organic solvent or mixture, Acetone): ~117 mg/mL (≈ 170 mM)
- solubility ([4]; organic solvent or mixture, Acetonitrile): ~128 mg/mL (≈ 186 mM)
- solubility ([4]; organic solvent or mixture, Dichloromethane): ~251 mg/mL (≈ 365 mM)
- solubility ([4]; organic solvent or mixture, Ethanol): ~20.9 mg/mL (≈ 30.4 mM)
- solubility ([4]; organic solvent or mixture, Ethyl acetate): ~133 mg/mL (≈ 193 mM)
- solubility ([4]; organic solvent or mixture, Methyl tert-butyl ether): ~0.7 mg/mL (≈ 1.02 mM)
- solubility ([4]; organic solvent or mixture, N-heptane): < 0.6 mg/mL
- solubility ([4]; organic solvent or mixture, Tetrahydrofuran): ~232 mg/mL (≈ 339 mM)
- solubility ([4]; organic solvent or mixture, Toluene): ~13.2 mg/mL (≈ 19.2 mM)
- solubility ([4]; Water): < 0.7 mg/mL
- Total impurities (%) ([5]; 1 month): 0.07%
- Total impurities (%) ([5]; 3 months): 0.05%
- Total impurities (%) ([5]; Initial): 0.07%
- Conclusion ([6]; 0th month): Qualified
- Content (anhydrous and insoluble residue)/HPLC ([6]; 0th month): 99.4%
- Isomer/HPLC: Chiral purity ([6]; 0th month): 100.0%
- Isomer/HPLC: Isomer 1 ([6]; 0th month): 0.05%
- Moisture ([6]; 0th month): 0.2%
- Related substances/HPLC: Impurity 3 ([6]; 0th month): <0.05%
- Related substances/HPLC: Other impurities ([6]; 0th month): 0.05%
- Related substances/HPLC: Total impurities ([6]; 0th month): 0.05%
- Conclusion ([6]; 1st month): Qualified
- Content (anhydrous and insoluble residue)/HPLC ([6]; 1st month): 99.0%
- Isomer/HPLC: Chiral purity ([6]; 1st month): 100.0%
- Isomer/HPLC: Isomer 1 ([6]; 1st month): 0.04%
- Moisture ([6]; 1st month): 0.1%
- Related substances/HPLC: Impurity 3 ([6]; 1st month): <0.05%
- Related substances/HPLC: Other impurities ([6]; 1st month): 0.05%
- Related substances/HPLC: Total impurities ([6]; 1st month): 0.05%
- Conclusion ([6]; 2nd month): Qualified
- Content (anhydrous and insoluble residue)/HPLC ([6]; 2nd month): 98.9%
- Isomer/HPLC: Chiral purity ([6]; 2nd month): 100.0%
- Isomer/HPLC: Isomer 1 ([6]; 2nd month): 0.04%
- Moisture ([6]; 2nd month): 0.2%
- Related substances/HPLC: Impurity 3 ([6]; 2nd month): <0.05%
- Related substances/HPLC: Other impurities ([6]; 2nd month): 0.05%
- Related substances/HPLC: Total impurities ([6]; 2nd month): 0.05%
- Conclusion ([6]; 3rd month): Qualified
- Content (anhydrous and insoluble residue)/HPLC ([6]; 3rd month): 98.9%
- Isomer/HPLC: Chiral purity ([6]; 3rd month): 100.0%
- Isomer/HPLC: Isomer 1 ([6]; 3rd month): 0.04%
- Moisture ([6]; 3rd month): 0.1%
- Related substances/HPLC: Impurity 3 ([6]; 3rd month): <0.05%
- Related substances/HPLC: Other impurities ([6]; 3rd month): <0.05%
- Related substances/HPLC: Total impurities ([6]; 3rd month): <0.05%
- Stability under the accelerated condition ([6]; 6 months vs 0th month): stable
- Conclusion ([6]; 6th month): Qualified
- Content (anhydrous and insoluble residue)/HPLC ([6]; 6th month): 99.5%
- Isomer/HPLC: Chiral purity ([6]; 6th month): 100.0%
- Isomer/HPLC: Isomer 1 ([6]; 6th month): 0.04%
- Moisture ([6]; 6th month): 0.1%
- Related substances/HPLC: Impurity 3 ([6]; 6th month): <0.05%
- Related substances/HPLC: Other impurities ([6]; 6th month): <0.05%
- Related substances/HPLC: Total impurities ([6]; 6th month): <0.05%
- New impurity peak ([6]; 6th month vs 0th month): ≤ 0.10%
SMILES: CC(C)C(=O)O[C@@H](C)OC(=O)NC(C)(C)C(=O)N[C@H](COCc1ccccc1)C(=O)N1CCC2(CC1)CN(S(C)(=O)=O)c1ccccc12 [crystal form, (4R,11R)-7,7-dimethyl-4-(1-(methylsulfonyl)spiro[indoldoline-3,4′-piperidine]-1′-carbonyl)-6,9-dioxo-1-phenyl-2,10-dioxa-5,8-diazadodecane-11-ylisobutyrate]

- Degradation (%) [2, 8]: 0.01%
- Purity (%) [2, 8]: 99.27%
- Degradation (%) [2, 9]: 0.03%
- Purity (%) [2, 9]: 99.25%
- Degradation (%) ([2]; 80° C. (opened), 1 Day): 0.18%
- Purity (%) ([2]; 80° C. (opened), 1 Day): 99.10%
- Purity (%) ([2]; Initial): 99.28%
- Degradation (%) [2, 10]: 1.02%
- Purity (%) [2, 10]: 98.26%
- Hygroscopicity (DVS) [3]: slightly hygroscopic
- solubility ([7]; organic solvent or mixture, thermodynamic from solid, 1,4-Dioxane): > 760 mg/mL
- solubility ([7]; organic solvent or mixture, thermodynamic from solid, Acetone): > 520 mg/mL
- solubility ([7]; organic solvent or mixture, thermodynamic from solid, Acetonitrile): > 587 mg/mL
- solubility ([7]; organic solvent or mixture, thermodynamic from solid, Anisole): > 510 mg/mL
- solubility ([7]; organic solvent or mixture, thermodynamic from solid, Butanone): > 700 mg/mL
- solubility ([7]; organic solvent or mixture, thermodynamic from solid, Cyclohexane): < 1.2 mg/mL
- solubility ([7]; organic solvent or mixture, thermodynamic from solid, Dichloromethane): > 798 mg/mL
- solubility ([7]; organic solvent or mixture, thermodynamic from solid, Dimethyl sulfoxide): > 450 mg/mL
- solubility ([7]; organic solvent or mixture, thermodynamic from solid, Ethanol): > 480 mg/mL
- solubility ([7]; organic solvent or mixture, thermodynamic from solid, Ethyl acetate): > 600 mg/mL
- solubility ([7]; organic solvent or mixture, thermodynamic from solid, Ethyl formate): > 405 mg/mL
- solubility ([7]; organic solvent or mixture, thermodynamic from solid, Isopropanol): > 432 mg/mL
- solubility ([7]; organic solvent or mixture, thermodynamic from solid, Isopropyl acetate): > 643 mg/mL
- solubility ([7]; organic solvent or mixture, thermodynamic from solid, Methanol): > 725 mg/mL
- solubility ([7]; organic solvent or mixture, thermodynamic from solid, Methyl isobutyl ketone): > 400 mg/mL
- solubility ([7]; organic solvent or mixture, thermodynamic from solid, Methyl tert-butyl ether): > 70 mg/mL
- solubility ([7]; organic solvent or mixture, thermodynamic from solid, N-heptane): < 1.3 mg/mL
- solubility ([7]; organic solvent or mixture, thermodynamic from solid, N-hexane): < 1.2 mg/mL
- solubility ([7]; organic solvent or mixture, thermodynamic from solid, N-propanol): > 460 mg/mL
- solubility ([7]; organic solvent or mixture, thermodynamic from solid, Tetrahydrofuran): > 553 mg/mL
- solubility ([7]; organic solvent or mixture, thermodynamic from solid, Toluene): > 473 mg/mL
- solubility ([7]; thermodynamic from solid, Water): < 1.3 mg/mL
SMILES: CC(C)C(=O)O[C@@H](C)OC(=O)NC(C)(C)C(=O)N[C@H](COCc1ccccc1)C(=O)N1CCC2(CC1)CN(S(C)(=O)=O)c1ccccc12 [amorphous substance, (4R,11R)-7,7-dimethyl-4-(1-(methylsulfonyl)spiro[indoldoline-3,4′-piperidine]-1′-carbonyl)-6,9-dioxo-1-phenyl-2,10-dioxa-5,8-diazadodecane-11-ylisobutyrate]
- Solid form by XRPD before and after DVS test [3]: the morphology of the solid did not change
